A short description of series [1]: Solubility of DPCP in solvents for gel and ointment formulations. It counts as physicochemical. As for the experimental part: (§1) The compatibility and solubility of DPCP was determined in both isopropyl myristate (IPM) as well as Polysorbate 80 (PS80). […] Next, the stability of DPCP in these solvents was determined. A solution of 0.4% DPCP in isopropyl myristate and a solution of 0.4% DPCP in Polysorbate 80 was placed at 50° C. for two weeks. The stability of DPCP in these solvents was determined using reverse phase HPLC on a C18 column.

A short description of series [2]: Stability of 0.4% DPCP solutions in solvents at 50° C., reverse phase HPLC on a C18 column. It is filed as physicochemical. As for the experimental part:
as §1
For the development of a gel, the stability of DPCP was determined in both Ethanol (ETOH) and Isopropanol (IPA) was determined (0.4% DPCP solutions in each solvent was placed at 50° C. for two weeks; FIG. 3. All solutions contained 0.1% BHT). […] However, DPCP was stable in IPA. The stability of DPCP in the above solvents was determined using reverse phase HPLC on a C18 column.

Take `O=c1c(-c2ccccc2)c1-c1ccccc1` [DPCP, Diphenylcyclopropenone]: the “solubility of DPCP in PS80” value in series [1] (Polysorbate 80 (PS80)) was “highly soluble”. Besides, in series [1] (isopropyl myristate (IPM)), the “solubility of DPCP in IPM” value is reported as “about 1.1 % w/w”. The “stability of DPCP in PS80” value in series [2] (0.4% DPCP in Polysorbate 80, 50° C., two weeks) was “some degradation”. Moreover, the “stability of DPCP in ETOH” value in series [2] (0.4% DPCP in ethanol, 0.1% BHT, in the presence of citric acid, 50° C., two weeks) is recorded as “Some degradation”. Besides, the “stability of DPCP in IPA” value in series [2] (0.4% DPCP in isopropanol, 0.1% BHT, 50° C., two weeks) was “stable”. For the same compound, in series [2] (0.4% DPCP in isopropyl myristate, 50° C., two weeks), the “stability of DPCP in IPM” value is listed as “stable”. Moreover, the “effect of BHT on degradation of DPCP in PS80” value in series [2] (PS80 with butylated hydroxytoloune (BHT)) is “reduce the amount of degradation”.

Values taken from US20190029974A1, “METHODS FOR TREATING SKIN DISORDERS AND CONDITIONS UTILIZING HAPTENS” (RXi Pharmaceuticals Corporation, priority 2015, published 2019).
